Assay results published in patent publication US6124284A, “Bicyclic amide derivatives and their use as muscle relaxants” (Glaxo Wellcome Inc., priority 1998, dated 2000).

Tested on: rat
Test: Established adjuvant arthritis (adjuvant-induced polyarthritis in the rat)
Type: in vivo, female Lewis rats
Conditions: 50 mg/kg b.i.d.
Method: The procedures for this test have been described in detail by R. Vinegar, J. F. Truax, J. L. Selph. A. Lea, and P. R. Johnston (J. Immunopharmacol. 1:497-520, 1979). The rats used in these studies were female Lewis rats whose starting weight was 190±10 g. Arthritic rats were assigned to treatment groups consisting of six animals each. Fed rats were dosed by oral gavage starting on day 21 post adjuvant injection; therapy was continued until day 28. The incidence and severity of arthritic lesions were assessed using a modification of the scoring procedure described by H. L. F. Currey and M. Ziff (J. Exp. Med. 121:185-203, 1968). Briefly, the bilateral joints were scored for erythema, edema, and ankylosis as outlined below:
The maximal possible score per rat was 40. Experimental results were analyzed by one-way ANOVA, followed by post hoc comparisons of treatment effects versus untreated arthritic control using the Newman-Keuls test. The percent inhibition of each drug-treated group was calculated from the mean relative to the arthritic control.

Q: Which arthritic scores (oral gavage, days 22, 25, and 27, versus untreated arthritic control) does the source give for `NC(=O)/C=C1\CCc2c(F)cc(F)cc21` [Example 5, (E)-2-(4,6 Difluoro-1-indanylidene)acetamide] here?
A: significantly (p<0.01) lowered arthritic scores

Q: What about the Spleen weight (postmortem on day 27) of the same compound?
A: significantly reduced (p<0.01)

Q: And the plasma fibrinogen (postmortem on day 27)?
A: significantly reduced (p<0.01)
